Conditions: Liquid, Transpiration method

CCCCCCCCCCc1ccccc1 [1-phenyldecane]
Conditions | vapor or sublimation pressure [kPa]
318.2 K | 0.00122
323.2 K | 0.00192
328.3 K | 0.00293
333.5 K | 0.0045
338.6 K | 0.00655
343.7 K | 0.00966
348.7 K | 0.0144
353.3 K | 0.0203
358.4 K | 0.0288
363.4 K | 0.0406

CCCCCCCc1ccccc1 [heptylbenzene]
Conditions | vapor or sublimation pressure [kPa]
292.5 K | 0.00286
294.5 K | 0.00347
297.5 K | 0.00455
300.4 K | 0.00585
303.4 K | 0.00761
306.4 K | 0.00955
309.4 K | 0.01227
312.4 K | 0.01486
315.4 K | 0.01959
318.2 K | 0.02441
321.3 K | 0.03085
323.4 K | 0.03499
326.4 K | 0.04342
328.4 K | 0.04901
331.3 K | 0.06114
333.5 K | 0.06975
336.4 K | 0.0845
338.5 K | 0.09752
341.3 K | 0.1139
343.5 K | 0.1322
346.3 K | 0.1552
348.5 K | 0.1818
351.5 K | 0.2197
353.5 K | 0.2474

CCCCCCCCCCCc1ccccc1 [undecylbenzene]
Conditions | vapor or sublimation pressure [kPa]
313.2 K | 0.00027
319.3 K | 0.0005
323.3 K | 0.00072
327.3 K | 0.00104
331.3 K | 0.00146
333.4 K | 0.00176
338.4 K | 0.00262
343.5 K | 0.00413
348.7 K | 0.00598
353.6 K | 0.00906
358.7 K | 0.01272
363.8 K | 0.01807

CCCCCc1ccccc1 [pentylbenzene]
Conditions | vapor or sublimation pressure [kPa]
284.5 K | 0.0162
287.5 K | 0.0218
290.4 K | 0.0272
293.3 K | 0.0333
293.4 K | 0.0328
296.3 K | 0.0427
298.3 K | 0.0493
303.2 K | 0.0706
306.3 K | 0.0902
308.2 K | 0.0998
311.2 K | 0.1227
314.2 K | 0.1487
317.3 K | 0.1765
320.3 K | 0.2193
323.2 K | 0.2711
